Experimental data reported in patent publication US9980928B2, “Hydroxy aliphatic substituted phenyl aminoalkyl ether derivatives” (PROUS INSTITUTE FOR BIOMEDICAL RESEARCH, S.A., priority 2012, dated 2018).
Entries after “also recorded” stand apart in the source; their conditions may differ.

Tests used:
p-ERK = assay: Western blot of p-ERK in mouse brain after i.p. administration; format: in vivo, mice; conditions: 30 mg/kg i.p., hippocampus, 1 hour after administration; hydrochloride
Description: (§1) Acute biochemical neuronal changes in neurotrophin and synaptic plasticity signaling after the administration of the compounds to be tested may be studied by Western blot assessment of ERK, Akt, phospholipase C (PLC), Trk-B, […] and CAMK II phosphorylation assays in the hippocampus, striatum and cortex at 1 hour post-administration.
(§2) Two groups of animals were used: C57BL control mice and mice treated by i.p. administration of a dose of 30 mg/kg of the compound to be tested diluted in saline solution or control saline (n=6 per group).
(§3) Animals were sacrificed by cervical dislocation at the corresponding time and different brain regions were dissected (frontal cortex, striatum, hippocampus, cerebellum) after […] of having administered the compounds. […] The supernatants were collected and the protein concentration was measured using the Dc protein assay kit (Bio-Rad, Hercules, Calif., USA) read in a 96-well plate. […]
(§4) After primary antibody incubation, membranes were washed with TBS-T and incubated for 1 hour at room temperature with the appropriate horseradish peroxidase-conjugated secondary antibody (1:2000; Promega, Madison, Wis., USA), and the reaction was finally visualized with the Western Blotting Luminol Reagent (Santa Cruz Biotechnology, Santa Cruz, Calif., USA). Western blot replicates were scanned and quantified using a computer-assisted densitometric analysis.

p-Akt = assay: Western blot of p-Akt in mouse brain after i.p. administration; format: in vivo, mice; conditions: 30 mg/kg i.p., hippocampus, 1 hour after administration; hydrochloride
Description: as §1, §2, §3, §4

mice [1] = assay: Tail suspension assay in mice; format: in vivo; conditions: 90 mg/kg, route not given
Description: Another method of measuring antidepressant activity that may be used to evaluate the compounds of the present invention is the tail suspension test in mice described in Vogel, H. G. and Vogel, W. H. (Eds.) Drug Discovery and Evaluation, Springer-Verlag Berlin Heidelberg, 1997) pp. 304-3059). The mouse tail suspension assay was conducted 60 minutes after dosing. The duration of immobility was recorded for a period of 5 minutes after tail suspension was initiated, and reduction in the duration of immobility by ≥50% relative to the control group indicated antidepressant activity. Statistical analysis was also performed by using one-way ANOVA followed by Dunnett's test to compare the data of test compound-treated and vehicle control groups. Significance was considered to be P<0.05.

serotonin transporter = target: T1, serotonin transporter (Homo sapiens, UniProt P31645); assay: Serotonin transporter binding radioligand inhibition ([3H]-imipramine); conditions: concentration 5 μM
T1 construct: expressed in transfected cells; host or cells: CHO cells
Excerpt: The serotonin transporter removes serotonin from the synaptic deft. The serotonin transporter terminates the effects of […], enabling its reuse by the presynaptic neuron.

mice [2] = assay: Novel object recognition test (acute); format: in vivo
Excerpt: The novel object recognition task is used to evaluate cognition, particularly memory recognition, in rodent models of CNS disorders. This test is based on the spontaneous tendency of rodents to spend more time exploring a novel object than a familiar one. The choice to explore the novel object reflects the use of learning and memory recognition. The novel object recognition test provides a measure of activity in a novel environment allowing tests for emotional reactivity and also for novel object recognition, a cognitive domain that depends on hippocampal functional integrity. Animals were habituated to the presence of two identical objects (LEGO® pieces) during a single session of 5 minutes (training) and sniffing (exploration of an object was defined as pointing the nose to the object at a distance of <1 cm and/or touching it with the nose). Mice were injected with saline or with the compound to be tested and returned to their home cages. At 24 hours the animals were introduced in the same open field again with the same two items (familiarization), and again exploration in each of them for 5 minutes was registered. One hour later, the mice were retested in the open field for 3 minutes, but this time with one of the “familiar” objects replaced by a new one (test). To analyze cognitive performance, a discrimination index was calculated as the difference in time exploring the novel and familiar object, expressed as the ratio of the total time spent exploring both objects, which made it possible to adjust for any differences in total exploration time. This test is useful for assessing impaired cognitive ability in transgenic strains of mice and evaluating novel chemical entities for their effect on cognition (Zhang, R. J Alzheimers Dis 2012, 31(4): 801-12). […] Neuroplasticity 2007, 26496).

mice [3] = assay: Mouse formalin assay (analgesic activity); format: in vivo
Description: The analgesic activity of the compounds of the present invention is determined making use of the mouse formalin test described in Hunskaar, S. J Neurosci Methods 1985, 14(1): 69-76. The hind paw licking time was measured at 5-minute intervals for 30 minutes following subplantar injection of formalin (0.02 mL, 2%). Statistical analysis using one-way ANOVA followed by Dunnett's test was applied for comparison between the test substance-treated and vehicle control groups. P<0.05 was considered significant.

[4] = acute administration, test session

T1 sequence (P31645 whole entry): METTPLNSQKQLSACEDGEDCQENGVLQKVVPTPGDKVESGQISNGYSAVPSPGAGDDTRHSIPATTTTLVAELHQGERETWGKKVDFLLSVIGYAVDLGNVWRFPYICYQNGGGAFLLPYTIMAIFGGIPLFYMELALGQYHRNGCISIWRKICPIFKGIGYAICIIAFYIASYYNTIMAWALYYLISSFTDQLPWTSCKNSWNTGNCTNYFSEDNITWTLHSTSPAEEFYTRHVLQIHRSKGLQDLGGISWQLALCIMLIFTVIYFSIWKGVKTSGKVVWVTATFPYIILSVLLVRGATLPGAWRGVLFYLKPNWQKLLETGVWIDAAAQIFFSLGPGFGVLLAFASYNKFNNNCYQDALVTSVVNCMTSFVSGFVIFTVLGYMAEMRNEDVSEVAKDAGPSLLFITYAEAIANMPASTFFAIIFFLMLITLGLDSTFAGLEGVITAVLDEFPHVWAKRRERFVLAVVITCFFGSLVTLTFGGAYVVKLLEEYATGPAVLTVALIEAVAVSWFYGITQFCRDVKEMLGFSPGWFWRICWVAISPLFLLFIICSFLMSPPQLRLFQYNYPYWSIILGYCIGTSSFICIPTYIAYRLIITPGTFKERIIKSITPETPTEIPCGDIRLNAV

SMILES: CNCCC(Oc1ccc(CCO)cc1)c1ccccc1.Cl (single isomer, unassigned) [Example 2, 2-[4-[3-(Methylamino)-1-phenylpropoxy]phenyl]ethanol hydrochloride]
- p-ERK levels (ERK1/2 phosphorylation) (p-ERK): positive significant increase; also recorded: trend for an increase
- p-Akt levels (Akt phosphorylation) (p-Akt): positive significant increase; also recorded: increase in Akt phosphorylation
- antidepressant effect (duration of immobility) (mice [1]): significant activity
- inhibition at 5 µM (serotonin transporter): 82%
- time familiar object (mice [2]; [4]): 24.4%
- time new object (mice [2]; [4]): 75.5%
- discrimination of the two objects vs saline group (mice [2]; acute conditions): discriminated the two objects better
- analgesic activity following formalin challenge (hind paw licking time) (mice [3]; 3 mg/kg oral): significant analgesic activity
- analgesic activity following formalin challenge (hind paw licking time) (mice [3]; 30 mg/kg intraperitoneal): significant analgesic activity
- analgesic activity following formalin challenge (hind paw licking time) (mice [3]; 30 mg/kg oral): significant analgesic activity
- analgesic activity following formalin challenge (hind paw licking time) (mice [3]; 90 mg/kg oral): significant analgesic activity
